Measurements from ChEMBL document CHEMBL1201862, “PubChem BioAssay data set” (2004).
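Compound exposure: 48 hours, 5 concentrations, 96-well plates. At the GI50, growth is halved.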 Activity calls are given as the source filed them. Cut-off read from the data, not from the text of the source: active = GI50 up to about 1.1 µM and inactive = higher.

How the values were obtained:
Experiment in all cases: NCI-60 cell line screen, 48 h
[1] = tested on: SR
[2] = tested on: SK-MEL-5
[3] = tested on: NCI-H226
[4] = tested on: TK-10
[5] = tested on: COLO 205
[6] = tested on: SK-MEL-2
[7] = tested on: SN12C
[8] = tested on: HT-29
[9] = tested on: DU-145
[10] = tested on: RXF 393
[11] = tested on: ACHN
[12] = tested on: T47D
[13] = tested on: EKVX
[14] = tested on: UACC-257
[15] = tested on: RPMI-8226
[16] = tested on: Malme-3M
[17] = tested on: UACC-62
[18] = tested on: PC-3
[19] = tested on: SF-539
[20] = tested on: MDA-N

Measured: GI50

COC(=O)CC(=O)Nc1sccc1S(=O)(=O)c1ccccc1
inactive: [1] > 100 µM | [2] > 100 µM | [3] 40.3 µM | [4] 65.9 µM | [5] > 100 µM | [6] 66.2 µM | [7] > 100 µM | [8] > 100 µM | [9] 71.3 µM | [10] 44.4 µM | [11] > 100 µM | [12] > 100 µM | [13] > 100 µM | [14] 67.1 µM | [15] > 100 µM | [16] > 100 µM | [17] 49.1 µM | [18] 34.4 µM | [19] 35.1 µM | [20] 35.2 µM

CCCC[C@H]1C(=O)O[C@H](C)[C@H](NC(=O)c2cccc(NC=O)c2OC)C(=O)O[C@@H](C)[C@@H]1OC(=O)C(C)CC.CCCC[C@H]1C(=O)O[C@H](C)[C@H](NC(=O)c2cccc(NC=O)c2OC)C(=O)O[C@@H](C)[C@@H]1OC(=O)CC(C)C (stereo not given in full)
inactive: [1] 14.5 µM | [2] 12 µM | [3] 12.2 µM | [4] 12.9 µM | [5] 11.7 µM | [6] 6.07 µM | [7] 17.3 µM | [8] 9.84 µM | [9] 13.4 µM | [10] 14.1 µM | [11] 10.8 µM | [12] 14 µM | [13] 11 µM | [14] 12.1 µM | [15] 10.2 µM | [16] 15.8 µM | [17] 7.14 µM | [18] 9.42 µM | [19] 15.8 µM | [20] 17.6 µM

CCCCC(=O)OC[n+]1cccc(-c2c(COC(=O)NC(C)C)c(COC(=O)NC(C)C)c3n2CCC3)c1
inactive: [1] 4.72 µM | [2] 35.6 µM | [3] 55.7 µM | [4] 42.1 µM | [5] 72.8 µM | [6] 26.4 µM | [7] 31.8 µM | [8] 43 µM | [9] 25.8 µM | [10] 22.9 µM | [11] 21.3 µM | [12] > 83.2 µM | [13] > 100 µM | [14] 44.7 µM | [15] 30 µM | [16] 32.7 µM | [17] 20 µM | [18] 60.7 µM | [19] 28.6 µM | [20] 99.1 µM

CCCCC(=O)N/S(=N/C(=O)c1ccccc1)C(Cl)(Cl)Cl (stereo not given)
inactive: [1] > 100 µM | [2] > 100 µM | [3] > 100 µM | [4] > 100 µM | [5] > 100 µM | [6] > 100 µM | [7] > 100 µM | [8] > 100 µM | [9] > 100 µM | [10] > 100 µM | [11] > 100 µM | [12] > 100 µM | [13] > 100 µM | [14] > 100 µM | [15] > 100 µM | [16] > 100 µM | [17] > 100 µM | [18] > 100 µM | [19] > 100 µM | [20] > 100 µM

CC(=O)NC1C(O)C(O)C(CO)OC1n1nc(SCc2ccccc2)c(=O)[nH]c1=O (stereo not given)
inactive: [1] > 100 µM | [2] > 100 µM | [3] > 100 µM | [4] > 100 µM | [5] > 100 µM | [6] > 100 µM | [7] > 100 µM | [8] > 100 µM | [9] > 100 µM | [10] > 100 µM | [11] > 100 µM | [12] > 100 µM | [13] > 100 µM | [14] > 100 µM | [15] > 100 µM | [16] > 100 µM | [17] > 100 µM | [18] > 100 µM | [19] > 100 µM | [20] > 100 µM

COc1cc2nc(-c3ccccc3)cc(O)c2cc1OC
inactive: [1] 6 µM | [2] 5.78 µM | [3] 14.4 µM | [4] 55.8 µM | [5] 4.2 µM | [6] 22.4 µM | [7] 31.4 µM | [8] 9.84 µM | [9] 54 µM | [10] 21.2 µM | [11] 41.1 µM | [12] > 100 µM | [13] > 100 µM | [14] 63.7 µM | [15] 27 µM | [16] > 50.6 µM | [17] 10.8 µM | [18] 23 µM | [19] 14.3 µM | [20] 2.18 µM
